Common to all, as to assay: NCI-60 cell line screen, 48 h
Assay [1] relates to OVCAR-5 ovarian.
In assay [2] the test system is U251 CNS.
The subject of assay [3] is SK-OV-3 ovarian.
For assay [4], the system named is SF-268 CNS.
The test system of assay [5] is OVCAR-8 ovarian.
Assay [6] relates to EKVX NSCLC.
The test system of assay [7] is MDA-MB-435.
Assay [8] has as its system HOP-62 NSCLC.
Assay [9] concerns SR leukemia.
The subject of assay [10] is SW-620 colon.

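Five compound concentrations were applied to cells in 96-well plates for 48 hours; endpoints were derived by simple linear interpolation of the resulting dose-response curve. At the GI50, growth is halved. TGI marks complete inhibition of growth.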 A value given as a limit tells only on which side of the number the result lay.

As to `O=C(Nc1ccc(-n2ccc3c(NC(=O)c4ccccc4)nccc32)cc1)c1ccc(N2CCOCC2)c(C(F)(F)F)c1`, the GI50 is 4.83 µM in assay [1]; 0.0441 µM in assay [2]; 0.509 µM in [3]; 0.122 µM in [4]; 0.115 µM in [5]; 3.9 µM in assay [6]. Further, the GI50 is 0.102 µM in [7], 1.74 µM in assay [8], < 0.0189 µM in [9] and 0.0697 µM in [10]. Also, the TGI in [1] is > 76.1 µM; in assay [2] it was 8.16 µM; in assay [3], 28.2 µM; in assay [4], > 77.1 µM; in assay [5] it was 56.2 µM; in assay [6] it was > 100 µM. The TGI is 41.8 µM in assay [7], 23.1 µM in assay [8], > 100 µM in [9] and > 100 µM in assay [10].

As to `COc1ccc(-c2cc(-c3ccc(Cl)cc3)nc(SCCCCCCC(=O)NO)n2)cc1`, the GI50 is 1.66 µM in [1]; 1.37 µM in [2]; 1.62 µM in assay [3]; 1.79 µM in assay [4]; 1.53 µM in assay [5]; 2.61 µM in assay [6]. In addition, the GI50 in [7] was 2.12 µM; in assay [8], 1.66 µM; in assay [9], 0.59 µM; in [10], 1.43 µM. Also, the TGI is 12.5 µM in assay [1]; 5.9 µM in assay [2]; 8.54 µM in [3]; 6.54 µM in assay [4]; > 50 µM in [5]; 22.3 µM in assay [6]. Moreover, the TGI in assay [7] is 11 µM; in assay [8], 15 µM; in assay [9] it was 3.66 µM; in assay [10], 10.2 µM.

For `COc1ccccc1N1CCN(CCCOc2ccc(C(=O)/C=C3/C(=O)Nc4ccccc43)cc2)CC1`, the GI50 is 16.6 µM in [1]; 15.4 µM in [2]; 28.2 µM in [3]; 16.8 µM in assay [4]; 12 µM in assay [5]; 7.34 µM in [6]. Besides, the GI50 in [7] is 13.6 µM; in [8], 16.1 µM; in assay [9], 2.57 µM; in assay [10], 12.6 µM. The TGI was 59.9 µM in [1]; 63.7 µM in assay [2]; > 100 µM in [3]; 47.3 µM in assay [4]; 55.5 µM in [5]; 41.2 µM in assay [6]. Besides, the TGI in [7] came out at 52.3 µM; in assay [8], 54.8 µM; in assay [9] it was 14.4 µM; in [10], 25.5 µM.

In the case of `Cc1ccccc1C[P+](c1ccccc1)(c1ccccc1)c1ccccc1`, the GI50 is 2.86 µM in assay [1]; 1.35 µM in assay [2]; 1.64 µM in [3]; 1.89 µM in [4]; 1.48 µM in [5]; 0.873 µM in [6]. In addition, the GI50 was 0.938 µM in [7], 1.79 µM in assay [8], 2.02 µM in assay [9] and 2.33 µM in assay [10]. For the same molecule, the TGI in assay [1] is > 100 µM; in assay [2] it was > 100 µM; in [3], 9.27 µM; in [4], > 100 µM; in assay [5], > 100 µM; in assay [6], > 100 µM. Moreover, the TGI is 21.3 µM in assay [7], 58.9 µM in [8], > 100 µM in [9] and > 100 µM in assay [10].

In the case of `Clc1nc(-c2ccccc2)nc(Cl)c1Cl`, the TGI in assay [1] stood at 30.4 µM; in assay [2] it was 21.5 µM; in assay [3], 27 µM; in assay [4], 30.7 µM; in [5] it was 41.2 µM; in [6] it was 31.5 µM. Besides, the TGI in assay [7] was found to be 26.8 µM; in assay [8], 32.3 µM; in assay [9] it was 7.53 µM; in [10], 15.1 µM.

Consider `NC(N)=NC(N)=Nc1ccc(S(N)(=O)=O)cc1`, for which the TGI in assay [1], in [2], in assay [3], in assay [4], in [5] and in assay [6] was > 100 µM each time. The TGI in assay [7], in assay [8], in assay [9] and in assay [10] was > 100 µM throughout.

Regarding `CCN(CC)CCC(=O)N1C/C(=C/c2ccccc2)C(=O)/C(=C\c2ccccc2)C1`, the TGI in assay [1] worked out at 9.76 µM; in [2], 1.9 µM; in assay [3], 20.9 µM; in assay [4], 5.4 µM; in assay [5], 10.2 µM; in [6], 13.6 µM. Further, the TGI in assay [7] was 5.5 µM; in [8], 26.1 µM; in assay [9] it was > 100 µM; in assay [10] it was 0.629 µM.

On to `CCCCCCC/C=C1\CCC(CN(C)C)C1=O` (stereo unspecified), for which the TGI in assay [1] came out at 36.7 µM; in assay [2], 32.1 µM; in assay [3], 43 µM; in [4] it was 35.8 µM; in assay [5], 18 µM; in assay [6], 22.8 µM. In addition, the TGI in assay [7] was determined as 18.8 µM; in assay [8], 32.3 µM; in assay [9], 9.17 µM; in [10] it was 18 µM.

For the molecule `C=C(C)[C@@H]1CC[C@]2(CN)CC[C@]3(C)[C@H](CC[C@@H]4[C@@]5(C)CCC(N)[C@@](C)(CO)[C@@H]5CC[C@]43C)[C@@H]12` (stereo partly specified), the GI50 in assay [1] is 1.73 µM; in assay [2] it was 1.61 µM; in assay [3], 1.8 µM; in assay [4], 1.75 µM; in assay [5], 1.86 µM; in assay [6] it was 1.55 µM. Also, the GI50 is 1.85 µM in assay [7], 1.78 µM in assay [8], 1.53 µM in assay [9] and 1.8 µM in assay [10]. Moreover, the TGI stood at 3.15 µM in assay [1]; 3.01 µM in assay [2]; 3.2 µM in [3]; 3.45 µM in [4]; 3.57 µM in [5]; 3.05 µM in assay [6]. Also, the TGI in assay [7] came to 3.46 µM; in assay [8], 3.24 µM; in [9] it was 3.63 µM; in assay [10], 3.62 µM.

With `COc1cc2c(cc1OC)-c1ncc3cc(OC)c(OC)c(OC)c3c1C2`, the GI50 in [1] was 57.3 µM; in assay [2], 36.8 µM; in assay [3] it was 33 µM; in [5], 12 µM; in assay [6], 22.8 µM; in assay [7], 16.2 µM. Besides, the figures for the GI50 in assay [8], in assay [9] and in assay [10] were 34.8 µM, 11 µM and 38.7 µM, respectively. Also, the TGI in assay [1] was > 100 µM; in assay [2], > 100 µM; in assay [3] it was > 100 µM; in [5], 43.1 µM; in assay [6], 90.1 µM; in assay [7] it was 42.6 µM. The results for the TGI in assay [8], in [9] and in [10] were 86.7 µM, 39.8 µM and > 100 µM, respectively.

On to `Cc1cc(C)c(O)c(CNCCCNCc2cc(C)cc(C)c2O)c1`, for which the GI50 in assay [1] is 4.23 µM; in assay [2], 1.95 µM; in assay [3] it was 3.62 µM; in assay [4] it was 5.97 µM; in assay [5], 5.09 µM; in assay [6] it was 5.04 µM. Besides, the GI50 in assay [7] is 1.54 µM; in [8], 6.68 µM; in [9] it was 2.06 µM; in assay [10], 3.19 µM. Besides, the TGI amounted to 19.5 µM in assay [1]; 3.89 µM in [2]; 13.6 µM in assay [3]; 21.2 µM in assay [4]; 20.3 µM in assay [5]; 20.2 µM in assay [6]. Further, the TGI in [7] turned out to be 2.93 µM; in assay [8], 21.8 µM; in assay [9] it was 6 µM; in assay [10], 11 µM.

As to `CN1CCN(c2ccc(-c3cccc(CN4CCOCC4)c3)cc2NC(=O)c2c[nH]c(=O)cc2C(F)(F)F)CC1`, the GI50 in [1] is > 100 µM; in [2], 23.6 µM; in assay [3] it was > 100 µM; in [4], 62.5 µM; in assay [5], 48.7 µM; in [6], 69.7 µM. Moreover, the GI50 is 30.2 µM in assay [7], > 100 µM in assay [8], 26.4 µM in assay [9] and 33.6 µM in [10]. In addition, the TGI in assay [1], in assay [2], in assay [3], in [4], in assay [5] and in assay [6] was > 100 µM in each case. In addition, the TGI in [7] was > 100 µM; in assay [8], > 100 µM; in assay [9], 63.7 µM; in [10], > 100 µM.

For the molecule `N#CC(C(=O)O)C(c1c(Cl)cccc1Cl)C(C#N)C(=O)O` (stereo unspecified), the TGI in assay [1], in [2], in assay [3], in [4], in assay [5] and in assay [6] was > 100 µM in each case. The TGI in [7], in [8], in assay [9] and in assay [10] was > 100 µM each time.

Consider `COC(=O)[C@H](Cc1cn(C)cn1)NC(=O)[C@@H](NC(=O)Nc1cc(C(F)(F)F)cc(C(F)(F)F)c1)C(C)(C)C`, for which the GI50 in assay [1], in [2], in [3], in [4], in assay [5] and in assay [7] was > 10 µM throughout. For the same molecule, the GI50 in assay [8], in assay [9] and in assay [10] was > 10 µM throughout. The TGI in assay [1], in [2], in assay [3], in assay [4], in assay [5] and in assay [7] was > 10 µM throughout. The TGI in assay [8], in [9] and in [10] was > 10 µM throughout.

In the case of `C[C@@H]1OC(=O)NN=C1c1ccc(-c2ccc(F)cc2)c(C(F)(F)F)c1`, the GI50 in assay [1] is 5.02 µM; in assay [2] it was 10.2 µM; in [3], 12.6 µM; in assay [4], 1.03 µM; in [5], 12.7 µM; in assay [7] it was 3.57 µM. Also, the GI50 in assay [8] was 10.7 µM; in assay [9] it was 2.58 µM; in assay [10] it was 10.2 µM. Also, the TGI in [1] was 21.6 µM; in assay [2] it was 23.3 µM; in assay [3] it was 27.5 µM; in [4], 21.5 µM; in assay [5], 31.1 µM; in [6], 12.4 µM. Further, the TGI in [7] was 13.9 µM; in assay [8], 26.2 µM; in assay [9], 13 µM; in assay [10] it was 25.3 µM.

On to `CC(C)=CCc1c(O)c(C(=O)CC(C)C)c(O)c2c(-c3ccccc3)cc(=O)oc12`, for which the GI50 is 9.59 µM in assay [2]; 10.3 µM in [3]; 12.5 µM in assay [4]; 8.98 µM in assay [5]; 11.5 µM in [6]; 11.8 µM in assay [7]. In addition, the results for the GI50 in assay [8], in assay [9] and in [10] were 15.4 µM, 12.8 µM and 14.5 µM, respectively. For the same molecule, the TGI in assay [2] was > 50 µM; in [3], 35.1 µM; in assay [4] it was > 50 µM; in assay [5], > 50 µM; in assay [6], > 50 µM; in assay [7] it was > 50 µM. Moreover, the TGI in [8], in assay [9] and in assay [10] was > 50 µM in each case.

Consider `Cc1nc2ccccc2c(/C=C/c2ccccc2)c1C(=O)/C=C/c1ccccc1`, for which the GI50 in assay [1] was 1.93 µM; in assay [2] it was 1.57 µM; in assay [3], 3.92 µM; in assay [4], 2.14 µM; in [5], 2.11 µM; in assay [6], 1.75 µM. Further, the GI50 in assay [7] is 2.36 µM; in assay [8], 1.9 µM; in assay [9], 1.78 µM. The TGI in assay [1] is 3.52 µM; in [2], 2.93 µM; in assay [3], > 100 µM; in [4] it was 6.24 µM; in [5], 5.67 µM; in assay [6], 3.28 µM. Further, the results for the TGI in [7], in [8] and in [9] were 6.71 µM, 4.1 µM and > 100 µM, respectively.

These data come from PubChem BioAssay (NCI).
